Our source for the Ki values is ChEMBL document CHEMBL1135259, “Azapeptides as inhibitors of the hepatitis C virus NS3 serine protease” (Bioorg Med Chem Lett, 2002).

One may read the Ki as a dissociation constant, usually derived from enzyme kinetics or from competition with a known ligand. The low end stands for higher affinity, the high end for lower affinity.

The target in the assay is NS3 (Hepatitis C virus, UniProt A3EZJ3). The assay is described as follows: Binding affinity against Hepatitis C virus NS3 protease. Set-up: species or system Hepacivirus hominis.
Sequence of NS3 (A3EZJ3 whole entry): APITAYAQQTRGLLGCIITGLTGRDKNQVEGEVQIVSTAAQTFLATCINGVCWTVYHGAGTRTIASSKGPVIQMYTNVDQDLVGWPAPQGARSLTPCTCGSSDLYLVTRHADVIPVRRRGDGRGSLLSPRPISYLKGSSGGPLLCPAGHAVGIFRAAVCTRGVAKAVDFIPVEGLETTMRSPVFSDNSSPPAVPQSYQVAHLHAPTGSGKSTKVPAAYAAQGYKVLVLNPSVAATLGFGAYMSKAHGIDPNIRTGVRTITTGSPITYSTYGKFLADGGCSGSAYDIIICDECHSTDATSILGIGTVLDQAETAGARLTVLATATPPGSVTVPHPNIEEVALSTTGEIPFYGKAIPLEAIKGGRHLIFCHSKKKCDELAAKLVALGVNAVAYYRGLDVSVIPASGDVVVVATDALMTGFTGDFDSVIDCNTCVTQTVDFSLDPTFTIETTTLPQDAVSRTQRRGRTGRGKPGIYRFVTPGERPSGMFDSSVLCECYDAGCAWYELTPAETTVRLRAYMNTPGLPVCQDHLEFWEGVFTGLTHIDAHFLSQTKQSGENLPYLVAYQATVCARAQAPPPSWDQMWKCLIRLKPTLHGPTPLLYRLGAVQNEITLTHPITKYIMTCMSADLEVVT

Molecules are shown by their SMILES.

In turn, `CCCN(NC(=O)[C@H]1CCCN1C(=O)[C@@H](NC(=O)[C@@H](NC(=O)[C@H](CC(=O)O)NC(=O)[C@H](CCC(=O)O)NC(=O)[C@@H](NC(=O)[C@H](CC(=O)O)NC(C)=O)[C@@H](C)O)C(C)C)C(C)C)C(=O)Oc1ccccc1[N+](=O)[O-]` returned a Ki of 9 µM.

`CCCN(NC(=O)[C@H]1CCCN1C(=O)[C@@H](NC(=O)[C@@H](NC(=O)[C@H](CC(=O)O)NC(C)=O)C(C)C)C(C)C)C(=O)Oc1ccc([N+](=O)[O-])cc1` registered a Ki of 7 µM.

On to `CCCN(NC(=O)[C@H]1CCCN1C(=O)[C@@H](NC(=O)[C@@H](NC(=O)[C@H](CC(=O)O)NC(=O)[C@H](CCC(=O)O)NC(=O)[C@@H](NC(=O)[C@H](CC(=O)O)NC(C)=O)[C@@H](C)O)C(C)C)C(C)C)C(=O)OC(Cl)C(Cl)(Cl)Cl` (some centres not stated), for which the Ki worked out at 0.2 µM. Against the preceding compound, the Ki is about 35-fold lower.

On to `CCCN(NC(=O)[C@H]1CCCN1C(=O)[C@@H](NC(=O)[C@@H](NC(=O)[C@H](CC(=O)O)NC(=O)[C@H](CCC(=O)O)NC(=O)[C@@H](NC(=O)[C@H](CC(=O)O)NC(C)=O)[C@@H](C)O)C(C)C)C(C)C)C(=O)C(F)(F)F`, for which the Ki was above 100 µM.

For `CCCN(NC(=O)[C@H]1CCCN1C(=O)[C@@H](NC(=O)[C@@H](NC(=O)[C@H](CC(=O)O)NC(=O)[C@H](CCC(=O)O)NC(=O)[C@@H](NC(=O)[C@H](CC(=O)O)NC(C)=O)[C@@H](C)O)C(C)C)C(C)C)S(=O)(=O)CCl`, the Ki was above 100 µM.

For `CCCN(NC(=O)[C@H]1CCCN1C(=O)[C@@H](NC(=O)[C@@H](NC(=O)[C@H](CC(=O)O)NC(=O)[C@H](CCC(=O)O)NC(=O)[C@@H](NC(=O)[C@H](CC(=O)O)NC(C)=O)[C@@H](C)O)C(C)C)C(C)C)C(=O)c1ccc(/N=N\c2ccc([N+](=O)[O-])cc2)cc1`, the Ki was above 100 µM.

Consider `CCCCC(=O)N(CCC)NC(=O)[C@H]1CCCN1C(=O)[C@@H](NC(=O)[C@@H](NC(=O)[C@H](CC(=O)O)NC(=O)[C@H](CCC(=O)O)NC(=O)[C@@H](NC(=O)[C@H](CC(=O)O)NC(C)=O)[C@@H](C)O)C(C)C)C(C)C`, for which the Ki was above 100 µM.

`CCCN(NC(=O)[C@H]1CCCN1C(=O)[C@@H](NC(=O)[C@@H](NC(=O)[C@H](CC(=O)O)NC(=O)[C@H](CCC(=O)O)NC(=O)[C@@H](NC(=O)[C@H](CC(=O)O)NC(C)=O)[C@@H](C)O)C(C)C)C(C)C)C(=O)C(=O)OCC` had a Ki above 100 µM.

In turn, `CCCN(NC(=O)[C@H]1CCCN1C(=O)[C@@H](NC(=O)[C@@H](NC(=O)[C@H](CC(=O)O)NC(=O)[C@H](CCC(=O)O)NC(=O)[C@@H](NC(=O)[C@H](CC(=O)O)NC(C)=O)[C@@H](C)O)C(C)C)C(C)C)C(=O)OCC(Cl)(Cl)Cl` displayed a Ki of 14 µM.

In turn, `CCCN(NC(=O)[C@H]1CCCN1C(=O)[C@@H](NC(=O)[C@@H](NC(=O)[C@H](CC(=O)O)NC(=O)[C@H](CCC(=O)O)NC(=O)[C@@H](NC(=O)[C@H](CC(=O)O)NC(C)=O)[C@@H](C)O)C(C)C)C(C)C)C(=O)CC` had a Ki above 100 µM.

`CCCN(NC(=O)[C@H]1CCCN1C(=O)[C@@H](NC(=O)[C@@H](NC(=O)[C@H](CC(=O)O)NC(=O)[C@H](CCC(=O)O)NC(=O)[C@@H](NC(=O)[C@H](CC(=O)O)NC(C)=O)[C@@H](C)O)C(C)C)C(C)C)C(=O)c1ccc(C(F)(F)F)cc1` gave a Ki above 100 µM.

In turn, `CCCN(NC(=O)[C@H]1CCCN1C(=O)[C@@H](NC(=O)[C@@H](NC(=O)[C@H](CC(=O)O)NC(=O)[C@H](CCC(=O)O)NC(=O)[C@@H](NC(=O)[C@H](CC(=O)O)NC(C)=O)[C@@H](C)O)C(C)C)C(C)C)C(=O)c1ccc(S(=O)(=O)F)cc1` showed a Ki above 100 µM.

The compound `CCCN(NC(=O)[C@H]1CCCN1C(=O)[C@@H](NC(=O)[C@@H](NC(=O)[C@H](CC(=O)O)NC(=O)[C@H](CCC(=O)O)NC(C)=O)C(C)C)C(C)C)C(=O)N[C@@H](CO)C(=O)N[C@@H](CCSC)C(=O)N[C@@H](CO)C(N)=O` displayed a Ki of 200 µM.

As for `CCCN(NC(=O)[C@H]1CCCN1C(=O)[C@@H](NC(=O)[C@@H](NC(=O)[C@H](CC(=O)O)NC(=O)[C@H](CCC(=O)O)NC(=O)[C@@H](NC(=O)[C@H](CC(=O)O)NC(C)=O)[C@@H](C)O)C(C)C)C(C)C)C(=O)c1cc(C(F)(F)F)cc(C(F)(F)F)c1`, the Ki was above 100 µM.

Compound `CCCC(=O)N(CCC)NC(=O)[C@H]1CCCN1C(=O)[C@@H](NC(=O)[C@@H](NC(=O)[C@H](CC(=O)O)NC(=O)[C@H](CCC(=O)O)NC(=O)[C@@H](NC(=O)[C@H](CC(=O)O)NC(C)=O)[C@@H](C)O)C(C)C)C(C)C` showed a Ki above 100 µM.

`CCCN(NC(=O)[C@H]1CCCN1C(=O)[C@@H](NC(=O)[C@@H](NC(=O)[C@H](CC(=O)O)NC(=O)[C@H](CCC(=O)O)NC(=O)[C@@H](NC(=O)[C@H](CC(=O)O)NC(C)=O)[C@@H](C)O)C(C)C)C(C)C)C(=O)OCc1ccccc1` gave a Ki of 80 µM.

Take `CCCN(NC(=O)[C@H]1CCCN1C(=O)[C@@H](NC(=O)[C@@H](NC(=O)[C@H](CC(=O)O)NC(=O)[C@H](CCC(=O)O)NC(=O)[C@@H](NC(=O)[C@@H](N)CC(=O)O)[C@@H](C)O)C(C)C)C(C)C)C(=O)N[C@@H](CO)C(=O)N[C@@H](CCSC)C(=O)N[C@@H](CO)C(=O)N[C@@H](Cc1ccc(O)cc1)C(=O)N[C@H](C(=O)N[C@@H](Cc1c[nH]c2ccccc12)C(=O)N[C@H](C(=O)NCC(=O)N[C@@H](CCCCN)C(=O)O)[C@@H](C)O)[C@@H](C)O`: the affinity corresponds to a Ki of 20 µM.

Turning to `CCN(NC(=O)[C@H]1CCCN1C(=O)[C@@H](NC(=O)[C@@H](NC(=O)[C@H](CC(=O)O)NC(=O)[C@H](CCC(=O)O)NC(=O)[C@@H](NC(=O)[C@H](CC(=O)O)NC(C)=O)[C@@H](C)O)C(C)C)C(C)C)C(=O)Oc1ccc([N+](=O)[O-])cc1`, the Ki is above 100 µM.

`CCCN(NC(=O)[C@H]1CCCN1C(=O)[C@@H](NC(=O)[C@@H](NC(=O)[C@H](CC(=O)O)NC(=O)[C@H](CCC(=O)O)NC(C)=O)C(C)C)C(C)C)C(=O)Oc1ccc([N+](=O)[O-])cc1` showed a Ki of 6 µM.

`CCCN(NC(=O)[C@H]1CCCN1C(=O)[C@@H](NC(=O)[C@@H](NC(=O)[C@H](CC(=O)O)NC(=O)[C@H](CCC(=O)O)NC(=O)[C@@H](NC(=O)[C@H](CC(=O)O)NC(C)=O)[C@@H](C)O)C(C)C)C(C)C)C(=O)OCc1ccc([N+](=O)[O-])cc1` returned a Ki of 45 µM.

Compound `CCCN(NC(=O)[C@H]1CCCN1C(=O)[C@@H](NC(=O)[C@@H](NC(=O)[C@H](CC(=O)O)NC(=O)[C@H](CCC(=O)O)NC(=O)[C@@H](NC(=O)[C@H](CC(=O)O)NC(C)=O)[C@@H](C)O)C(C)C)C(C)C)C(=O)Oc1ccc(Cl)cc1` returned a Ki of 16 µM.

With `CCCN(NC(=O)[C@H]1CCCN1C(=O)[C@@H](NC(=O)[C@@H](NC(=O)[C@H](CC(=O)O)NC(=O)[C@H](CCC(=O)O)NC(=O)[C@@H](NC(=O)[C@H](CC(=O)O)NC(C)=O)[C@@H](C)O)C(C)C)C(C)C)C(=O)c1ccc([N+](=O)[O-])cc1`, the Ki was above 100 µM.

For the compound `CCN(NC(=O)[C@H]1CCCN1C(=O)[C@@H](NC(=O)[C@@H](NC(=O)[C@H](CC(=O)O)NC(=O)[C@H](CCC(=O)O)NC(=O)[C@@H](NC(=O)[C@H](CC(=O)O)NC(C)=O)[C@@H](C)O)C(C)C)C(C)C)C(=O)OC(Cl)C(Cl)(Cl)Cl` (some centres not stated), the affinity, expressed as Ki, was 0.9 µM. That is a sub-micromolar value.

On to `CCCN(NC(=O)[C@H]1CCCN1C(=O)[C@@H](NC(=O)[C@@H](NC(=O)[C@H](CC(=O)O)NC(=O)[C@H](CCC(=O)O)NC(=O)[C@@H](NC(=O)[C@H](CC(=O)O)NC(C)=O)[C@@H](C)O)C(C)C)C(C)C)C(=O)c1ccc(C#N)cc1`, for which the Ki is above 100 µM.

`CCCN(NC(=O)[C@H]1CCCN1C(=O)[C@@H](NC(=O)[C@@H](NC(=O)[C@H](CC(=O)O)NC(=O)[C@H](CCC(=O)O)NC(=O)[C@@H](NC(=O)[C@H](CC(=O)O)NC(C)=O)[C@@H](C)O)C(C)C)C(C)C)C(=O)CBr` gave a Ki above 100 µM.

Turning to `CCCN(NC(=O)[C@H]1CCCN1C(=O)[C@@H](NC(=O)[C@@H](NC(=O)[C@H](CC(=O)O)NC(=O)[C@H](CCC(=O)O)NC(=O)[C@@H](NC(=O)[C@H](CC(=O)O)NC(C)=O)[C@@H](C)O)C(C)C)C(C)C)C(=O)Oc1ccccc1`, the affinity, expressed as Ki, was 8 µM.

Consider `CSCC[C@H](NC(=O)[C@H](CO)NC(=O)NNC(=O)[C@H]1CCCN1C(=O)[C@@H](NC(=O)[C@@H](NC(=O)[C@H](CC(=O)O)NC(=O)[C@H](CCC(=O)O)NC(=O)[C@@H](NC(=O)[C@H](CC(=O)O)NC(C)=O)[C@@H](C)O)C(C)C)C(C)C)C(=O)N[C@@H](CO)C(=O)N[C@@H](Cc1ccc(O)cc1)C(=O)N[C@H](C(=O)N[C@@H](Cc1c[nH]c2ccccc12)C(=O)N[C@H](C(=O)NCC(=O)N[C@@H](CCCCN)C(=O)O)[C@@H](C)O)[C@@H](C)O`, for which the Ki is above 200 µM.

Take `CCCN(NC(=O)[C@H]1CCCN1C(=O)[C@@H](NC(=O)[C@@H](NC(=O)[C@H](CC(=O)O)NC(=O)[C@H](CCC(=O)O)NC(=O)[C@@H](NC(=O)[C@H](CC(=O)O)NC(C)=O)[C@@H](C)O)C(C)C)C(C)C)C(=O)N[C@@H](CO)C(=O)N[C@@H](CCSC)C(=O)N[C@@H](CO)C(=O)N[C@@H](Cc1ccc(O)cc1)C(=O)N[C@H](C(=O)N[C@@H](Cc1c[nH]c2ccccc12)C(=O)N[C@H](C(=O)NCC(=O)N[C@@H](CCCCN)C(=O)O)[C@@H](C)O)[C@@H](C)O`: the Ki came out at 10 µM. In other words, the double-digit micromolar range.

`CCCN(NC(=O)[C@H]1CCCN1C(=O)[C@@H](NC(=O)[C@@H](NC(=O)[C@H](CC(=O)O)NC(=O)[C@H](CCC(=O)O)NC(=O)[C@@H](NC(=O)[C@H](CC(=O)O)NC(C)=O)[C@@H](C)O)C(C)C)C(C)C)C(=O)Sc1ccc(Cl)cc1`: the affinity corresponds to a Ki of 100 µM.

Regarding `CCCN(NC(=O)[C@H]1CCCN1C(=O)[C@@H](NC(=O)[C@@H](NC(=O)[C@H](CC(=O)O)NC(=O)[C@H](CCC(=O)O)NC(=O)[C@@H](NC(=O)[C@H](CC(=O)O)NC(C)=O)[C@@H](C)O)C(C)C)C(C)C)C(=O)N[C@@H](CO)C(=O)N[C@@H](CCSC)C(=O)N[C@@H](CO)C(=O)O`, the Ki was found to be 200 µM. Compared with the last compound, the Ki is about 2-fold higher.

`CCCN(NC(=O)[C@H]1CCCN1C(=O)[C@@H](NC(=O)[C@@H](NC(=O)[C@H](CC(=O)O)NC(=O)[C@H](CCC(=O)O)NC(C)=O)C(C)C)C(C)C)C(=O)N[C@@H](CO)C(=O)N[C@@H](CCSC)C(=O)N[C@@H](CO)C(=O)N[C@@H](Cc1ccc(O)cc1)C(=O)N[C@H](C(=O)N[C@@H](Cc1c[nH]c2ccccc12)C(=O)N[C@H](C(=O)NCC(=O)N[C@@H](CCCCN)C(=O)O)[C@@H](C)O)[C@@H](C)O` yielded a Ki of 20 µM.

Consider `CCCN(NC(=O)[C@H]1CCCN1C(=O)[C@@H](NC(=O)[C@@H](NC(=O)[C@H](CC(=O)O)NC(=O)[C@H](CCC(=O)O)NC(=O)[C@@H](NC(=O)[C@H](CC(=O)O)NC(C)=O)[C@@H](C)O)C(C)C)C(C)C)C(=O)Sc1ccccc1`, for which the Ki worked out at 160 µM. Against the preceding compound, the Ki is about 8-fold higher.
